According to patent US20240158448A1, “MULTIVALENT NANO-'SELF' PEPTIDES AND USES THEREOF” (THE TRUSTEES OF THE UNIVERSITY OF PENNSYLVANIA, priority 2021, published 2024):
Entries after “also recorded” stand apart in the source; their conditions may differ. Non-standard residues stand in square brackets, D forms with d. Primed or numbered codes have the meaning given here. No end group written: not given here. PEG5′ = linker of 5 PEG units between residues

How the values were obtained:
[1] = tested on: COS-1 (SIRPα negative) cells; test: Confocal live staining with FAM-labeled peptides, COS-1 cells; assay type: binding, monkey; details: FAM-labeled peptide
Method: SIRPα staining and confocal imaging. THP-1 monocytes were PMA-differentiated in RPMI 1640 for 24 hours. J774A.1, A549, and COS-1 cells were plated for 24 hours in media, respectively. Cells were washed with respective media prior to addition of fluorescent peptides. The peptides were left to incubate for 1 hour at 37 ° C., 5% CO2 and 95% humidity. For fixed cell staining, cells were incubated with 4% formaldehyde (Pierce) for 15 minutes prior to the addition of fluorescent peptides whereas for live cell staining, fixation was done after incubation with the FAM-labeled peptides. Nuclei were stained with 1 μg/mL Hoechst 33342 (Invitrogen). Cells were the washed PBS three times before analysis. Fluorescence imaging of fixed cells was performed using an Olympus IX71 with a digital EMCCD camera (Cascade 512B) and a 40×/0.6 NA objective. […] Quantification was done with ImageJ (NIH).
In order to visualize the uneven binding of the peptides to the surface of the macrophages, a live staining experiment of THP-1, J774A.1, and A549 cells, which all express SIRPα at different levels, was performed with FAM-labeled nS-wt and nS-X and analyzed by confocal microscopy (FIG. 11). […] Fluorescence of nS-X was consistently lower on THP-1 and J774A.1 macrophages relative to nS-wt. […]

[2] = tested on: THP-1 macrophages; test: Peptide inhibition assay (competition with FAM-labeled nS-F on THP-1 macrophages); assay type: binding, human; details: pre-treatment with unlabeled peptide
Method: Peptide inhibition assay. THP-1 monocytes were PMA differentiated in RPMI for 48 hours. […] To measure background internalization of the FAM-labeled peptides, nS-X-FAM was used. To determine the efficacy of the bivalent peptides to inhibit SIRPα binding, nS-X was used. Excess peptides were washed off with PBS and cells were fixed with 4% formaldehyde for 15 minutes at RT, washed with PBS, stained with 1 μg/mL Hoechst 33342, and then washed with PBS again. Fluorescence imaging was performed as described elsewhere herein and quantification was done using ImageJ.

[3] = tested on: THP-1 macrophages; test: Phosphotyrosine (pTyr) staining of THP-1 macrophages; assay type: cell-based, human; details: 20 nM peptide
Method: Phosphotyrosine (pTyr) staining. THP-1 monocytes were PMA differentiated for 48 hours. Macrophages were washed with RPMI three times then incubated with 50 μM and 20 nM of either nS-F or nS-FF for 1 hour at 37° C., 5% CO2 and 95% humidity. The same conditions were replicated with the addition of 5 μg/mL anti-CD47. Excess peptide was washed with PBS then macrophages were fixed. […] After washing with PBS, the macrophages were incubated with 1:100 mouse anti-pTyr (Santa Cruz Biotechnology) for 1 hour at room temperature with shaking. Macrophages were washed with PBS then stained with AlexaFluor 488 donkey anti-mouse (1:1000; Invitrogen) and 1 μg/mL Hoechst 33342 for 1 hour with shaking then washed again. Fluorescence imaging and quantification was performed as described elsewhere herein.

[4] = tested on: human macrophages (opsonized K562 cancer cells); test: Phagocytosis of opsonized K562 erythroleukemia cells by human macrophages; assay type: cell-based
Method: In vitro phagocytosis assay. Fresh human RBCs were washed twice with 50 mM EDTA (Thermo Fischer) in PBS (Gibco) then twice with 5% FBS in PBS. RBCs were opsonized with 20 μg/mL rabbit anti-human RBC antibody (Rockland) in 5% FBS for 1 hour at RT with shaking. For CD47 blocked RBCs, 5 μg/mL of mouse anti-human CD47 (B6H12; BD Biosciences) were added. Thereafter, RBCs were washed with PBS three times and stained with PKH26 dye (1:800 dilution in PBS; Sigma) for 1 hour at RT with shaking in the dark. RBCs were washed and resuspended in PBS.
THP-1 monocytes were PMA differentiated in RPMI for 48 hours. Macrophages were then washed with RPMI media three times. For SIRPα blocked THP-1 macrophages, 20 nM, 1 μM or 50 μM of the nano—Self peptides were incubated with the THP-1 macrophages for 1 hour at 37 ° C., 5% CO2 and 95% humidity. Those THP-Is were then washed with RPMI three times.
CO2 and 95% humidity. Macrophages were then washed with RPMI three times. Adherent and uninternalized RBCs were lysed with water for 30 seconds followed by immediate replacement with RPMI media. In order to distinguish remaining adherent RBCs from internalized RBCs, opsonized RBCs were stained with AlexaFluor 647 donkey anti-rabbit (binds to rabbit polyclonal opsonin on RBC; Invitrogen) IgG (1:1000) while unopsonized, CD47 blocked RBCs were stained with AlexaFluor 647 donkey anti-mouse (binds to mouse monoclonal anti-CD47 on RBCs; Invitrogen) IgG (1:1000) for 30 minutes. After washing, macrophages were fixed with 4% formaldehyde for 15 minutes at RT, washed with PBS, stained with 1 μg/mL Hoechst 33342, and then washed with PBS again. Fluorescence imaging was performed as described elsewhere herein and quantification was done using ImageJ. At least 200 cells were analyzed and experiments were repeated at least three times.
The anti-RBC successfully opsonized and triggered phagocytosis of K562 cells by macrophages (FIGS. 2A, 2F and 2E). […] Interaction of the nS peptides with K562 cells is likely minimal due to the relative lack of SIRPα expression. […] For both opsonized RBCs and opsonized K562s (FIGS. 2D, 2F), the hyperphagocytosis that is achieved with soluble F- and V-nS peptides matches the recently measured increases for disruption of both (i) the trans interactions between CD47 on a target and macrophage SIRPα and also, importantly, (ii) the cis interactions between CD47 and SIRPα on the same macrophage (FIG. 2G-left). Expression profiling of macrophages confirms these cells generally express CD47 at roughly similar levels to other cell types (FIG. 15). […] A preliminary conclusion is that nS-FF and the other substituted peptides, which were designed to bind SIRPα, inhibit both the cis and trans interactions between SIRPα and CD47 ([…]).

Row | Substance | binding to COS-1 cells [1] | inhibition of monovalent nS-F-FAM binding to macrophages [2] | effect on pTyr signal [3] | increase of phagocytosis relative to opsonized and CD47 blocked K562 cells ([4]; saturating peptide) | macrophages engulfing opsonized K562 cells at saturation ([4]; saturation)
1 | VTELTREG [nS-wt, 8-amino acid wild type nano-Self peptide from the CD47 loop, C-terminal amide] | primarily non-specific | – | – | – | –
2 | (VTELFREG-PEG5)2-K (VTELFREG[PEG5′]K[PEG5′]GERFLETV; not fully specified; also: bivalent lysine core) [nS-FF, bivalent nS-F linked through PEG5 linkers to a C-terminal Lys] | – | further decreased | suppressed pTyr at nanomolar concentrations; also recorded: suppressed passivating pTyr intensity; also recorded: suppressed pTyr signal; also recorded: efficiently suppresses phosphorylation | nearly doubled; also recorded: about two-fold | ~40%
